Data reported in patent US8952024B2, “Herbicidal pyrimidone derivatives” (E I du Pont de Nemours and Company, priority 2009, dated 2015).
Like-named read-outs stand apart in the source and are kept apart here.

Legend:
Format in all cases: in vivo
[1] = system: barnyardgrass (Echinochloa crus-galli); assay: Test A pre-/postemergence plant response; conditions: Echinochloa crus-galli, 240 h; for pest or weed control at 125 g/ha: 125 g ai/ha; for pest or weed control at 500 g/ha: 500 g ai/ha
Procedure, shortened: (§1)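 Visually rated 0–100 injury (100 = complete control) versus untreated plants, ~10 days in greenhouse. Application pre- (soil spray, loam/sand) and postemergence (2–10 cm, 1–2 leaf stage), same timepoint.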

corn (Zea mays) = assay: Test A pre-/postemergence plant response; conditions: Zea mays, 240 h; for Corn plant response rating (crop injury, 0 = no effect, 100 = complete kill) at 500 g/ha: 500 g ai/ha
Procedure, shortened: as §1

[2] = system: giant foxtail (Setaria faberii); assay: Test A pre-/postemergence plant response; conditions: Setaria faberi, 240 h; for pest or weed control at 125 g/ha: 125 g ai/ha; for pest or weed control at 500 g/ha: 500 g ai/ha
Procedure, shortened: as §1

[3] = system: large crabgrass (Digitaria sanguinalis); assay: Test A pre-/postemergence plant response; conditions: Digitaria sanguinalis, 240 h; for pest or weed control at 125 g/ha: 125 g ai/ha; for pest or weed control at 500 g/ha: 500 g ai/ha
Procedure, shortened: as §1

[4] = system: morningglory (Ipomoea spp.); assay: Test A pre-/postemergence plant response; conditions: Ipomoea, 240 h; for pest or weed control at 125 g/ha: 125 g ai/ha; for pest or weed control at 500 g/ha: 500 g ai/ha
Procedure, shortened: as §1

[5] = system: pigweed (Amaranthus retroflexus); assay: Test A pre-/postemergence plant response; conditions: Amaranthus retroflexus, 240 h; for pest or weed control at 125 g/ha: 125 g ai/ha; for pest or weed control at 500 g/ha: 500 g ai/ha
Procedure, shortened: as §1

[6] = system: velvetleaf (Abutilon theophrasti); assay: Test A pre-/postemergence plant response; conditions: Abutilon theophrasti, 240 h; for pest or weed control at 125 g/ha: 125 g ai/ha; for pest or weed control at 500 g/ha: 500 g ai/ha
Procedure, shortened: as §1

[7] = system: wheat (Triticum aestivum); assay: Test A pre-/postemergence plant response; conditions: Triticum aestivum, 240 h; for plant injury at 125 g/ha: 125 g ai/ha; for plant injury at 500 g/ha: 500 g ai/ha
Procedure, shortened: as §1

[8] = system: barnyardgrass (Echinochloa crus-galli); assay: Test B flooded paddy test; conditions: Echinochloa crus-galli, 360 h
Procedure, shortened: (§2)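 2-leaf seedlings; pots flooded 3 cm over soil at treatment; cpd dosed into floodwater, depth kept constant. Greenhouse 13–15 d. Visual rating vs untreated controls, 0 = no effect, 100 = complete control.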

[9] = system: ducksalad (Heteranthera limosa); assay: Test B flooded paddy test; conditions: Heteranthera limosa, 360 h
Procedure, shortened: as §2

rice (Oryza sativa) = assay: Test B flooded paddy test; conditions: Oryza sativa
Procedure, shortened: as §2

[10] = system: umbrella sedge (Cyperus difformis); assay: Test B flooded paddy test; conditions: Cyperus difformis, 360 h
Procedure, shortened: as §2

`O=C1CCCC(O)=C1C(=O)c1cnc(-c2ccccc2)n(Cc2ccccc2)c1=O` [Compound 17, 5-[(2-hydroxy-6-oxo-1-cyclohexen-1-yl)carbonyl]-2-phenyl-3-(phenylmethyl)-4(3H)-pyrimidinone] showed a pest or weed control at 125 g/ha ([1]; post-emergence, Postemergence, visual injury, 0 to 100 scale (0 no effect, 100 complete control), approx. ten days, read-out: Barnyardgrass plant response rating) of 10%, a pest or weed control at 500 g/ha ([1]; post-emergence, Postemergence, 0 to 100 scale, 0 = no effect, 100 = complete control, approx. ten days, read-out: Plant response rating, Barnyardgrass) of 70% and a pest or weed control at 125 g/ha ([1]; pre-emergence, Preemergence, 0 to 100 scale, 0 = no effect, 100 = complete control, read-out: Plant response rating, Barnyardgrass) of 0%. It also gave a pest or weed control at 500 g/ha ([1]; pre-emergence, Preemergence, visual injury, 0 to 100 scale (0 no effect, 100 complete control), approx. ten days, read-out: Plant response rating, Barnyardgrass) of 80%, a plant injury at 125 g/ha (corn (Zea mays); post-emergence, Postemergence, 125 g ai/ha, visual injury, 0 to 100 scale (0 no effect, 100 complete control), approx. ten days, read-out: Corn plant response rating) of 0% and a Corn plant response rating (crop injury, 0 = no effect, 100 = complete kill) at 500 g/ha (corn (Zea mays); post-emergence, Postemergence, 0 to 100 scale, 0 = no effect, 100 = complete control, approx. ten days) of 10%. For the same compound, the Corn plant response rating (crop injury, 0 = no effect, 100 = complete kill) at 125 g/ha (corn (Zea mays); pre-emergence, Preemergence, 125 g ai/ha, 0 to 100 scale, 0 = no effect, 100 = complete control) was 0%, the Corn plant response rating (crop injury, 0 = no effect, 100 = complete kill) at 500 g/ha (corn (Zea mays); pre-emergence, Preemergence, visual injury, 0 to 100 scale (0 no effect, 100 complete control), approx. ten days) was 0% and the pest or weed control at 125 g/ha ([2]; post-emergence, Postemergence, visual injury, 0 to 100 scale (0 no effect, 100 complete control), approx. ten days, read-out: Foxtail, Giant plant response rating) was 0%. The pest or weed control at 500 g/ha ([2]; post-emergence, Postemergence, 0 to 100 scale, 0 = no effect, 100 = complete control, approx. ten days, read-out: Plant response rating, Foxtail, Giant) was 30%, the pest or weed control at 125 g/ha ([2]; pre-emergence, Preemergence, 0 to 100 scale, 0 = no effect, 100 = complete control, read-out: Plant response rating, Foxtail, Giant) was 0% and the pest or weed control at 500 g/ha ([2]; pre-emergence, Preemergence, visual injury, 0 to 100 scale (0 no effect, 100 complete control), approx. ten days, read-out: Plant response rating, Foxtail, Giant) was 20%. The pest or weed control at 125 g/ha ([3]; post-emergence, Postemergence, visual injury, 0 to 100 scale (0 no effect, 100 complete control), approx. ten days, read-out: Crabgrass, Large plant response rating) was 10%, the pest or weed control at 500 g/ha ([3]; post-emergence, Postemergence, 0 to 100 scale, 0 = no effect, 100 = complete control, approx. ten days, read-out: Plant response rating, Crabgrass, Large) was 70% and the pest or weed control at 125 g/ha ([3]; pre-emergence, Preemergence, 0 to 100 scale, 0 = no effect, 100 = complete control, read-out: Plant response rating, Crabgrass, Large) was 20%. It also gave a pest or weed control at 500 g/ha ([3]; pre-emergence, Preemergence, visual injury, 0 to 100 scale (0 no effect, 100 complete control), approx. ten days, read-out: Plant response rating, Crabgrass, Large) of 100%, a pest or weed control at 125 g/ha ([4]; post-emergence, Postemergence, visual injury, 0 to 100 scale (0 no effect, 100 complete control), approx. ten days, read-out: Morningglory plant response rating) of 20% and a pest or weed control at 500 g/ha ([4]; post-emergence, Postemergence, 0 to 100 scale, 0 = no effect, 100 = complete control, approx. ten days, read-out: Plant response rating, Morningglory) of 70%. The pest or weed control at 125 g/ha ([4]; pre-emergence, Preemergence, 0 to 100 scale, 0 = no effect, 100 = complete control, read-out: Plant response rating, Morningglory) was 0%, the pest or weed control at 500 g/ha ([4]; pre-emergence, Preemergence, visual injury, 0 to 100 scale (0 no effect, 100 complete control), approx. ten days, read-out: Plant response rating, Morningglory) was 10% and the pest or weed control at 125 g/ha ([5]; post-emergence, Postemergence, visual injury, 0 to 100 scale (0 no effect, 100 complete control), approx. ten days, read-out: Pigweed plant response rating) was 80%. It also gave a pest or weed control at 500 g/ha ([5]; post-emergence, Postemergence, 0 to 100 scale, 0 = no effect, 100 = complete control, approx. ten days, read-out: Plant response rating, Pigweed) of 100%, a pest or weed control at 125 g/ha ([5]; pre-emergence, Preemergence, 0 to 100 scale, 0 = no effect, 100 = complete control, read-out: Plant response rating, Pigweed) of 80% and a pest or weed control at 500 g/ha ([5]; pre-emergence, Preemergence, visual injury, 0 to 100 scale (0 no effect, 100 complete control), approx. ten days, read-out: Plant response rating, Pigweed) of 90%. The pest or weed control at 125 g/ha ([6]; post-emergence, Postemergence, visual injury, 0 to 100 scale (0 no effect, 100 complete control), approx. ten days, read-out: Velvetleaf plant response rating) was 100%, the pest or weed control at 500 g/ha ([6]; post-emergence, Postemergence, 0 to 100 scale, 0 = no effect, 100 = complete control, approx. ten days, read-out: Plant response rating, Velvetleaf) was 100% and the pest or weed control at 125 g/ha ([6]; pre-emergence, Preemergence, 0 to 100 scale, 0 = no effect, 100 = complete control, read-out: Plant response rating, Velvetleaf) was 40%. For the same compound, the pest or weed control at 500 g/ha ([6]; pre-emergence, Preemergence, visual injury, 0 to 100 scale (0 no effect, 100 complete control), approx. ten days, read-out: Plant response rating, Velvetleaf) was 100%, the plant injury at 125 g/ha ([7]; post-emergence, Postemergence, visual injury, 0 to 100 scale (0 no effect, 100 complete control), approx. ten days, read-out: Wheat plant response rating) was 0% and the plant injury at 500 g/ha ([7]; post-emergence, Postemergence, 0 to 100 scale, 0 = no effect, 100 = complete control, approx. ten days, read-out: Plant response rating, Wheat) was 10%. For the same compound, the plant injury at 125 g/ha ([7]; pre-emergence, Preemergence, 0 to 100 scale, 0 = no effect, 100 = complete control, read-out: Plant response rating, Wheat) was 0%, the plant injury at 500 g/ha ([7]; pre-emergence, Preemergence, visual injury, 0 to 100 scale (0 no effect, 100 complete control), approx. ten days, read-out: Plant response rating, Wheat) was 0% and the pest or weed control at 250 g/ha ([8]; 250 g ai/ha, flooded paddy test, visual rating on 0 to 100 scale (0 no effect, 100 complete control) after 13 to 15 days, read-out: Plant response rating, Flood, Barnyardgrass) was 25%. It also gave a pest or weed control at 31 g/ha ([8]; Flood (flooded paddy test), 31 g ai/ha, scale of 0 to 100 where 0 is no effect and 100 is complete control, 13 to 15 days, read-out: Plant response rating, Barnyardgrass) of 0%, a pest or weed control at 62 g/ha ([8]; Flood (flooded paddy test), 62 g ai/ha, scale 0 to 100, 0 is no effect, 100 is complete control, 13 to 15 days, read-out: Plant response rating, Barnyardgrass) of 20% and a pest or weed control at 125 g/ha ([8]; Flood (flooded paddy test), 125 g ai/ha, scale 0 to 100, 0 is no effect, 100 is complete control, 13 to 15 days, read-out: Plant response rating, Barnyardgrass) of 25%. It also gave a pest or weed control at 250 g/ha ([9]; 250 g ai/ha, flooded paddy test, visual rating on 0 to 100 scale (0 no effect, 100 complete control) after 13 to 15 days, read-out: Plant response rating, Flood, Ducksalad) of 45%, a pest or weed control at 31 g/ha ([9]; Flood (flooded paddy test), 31 g ai/ha, scale of 0 to 100 where 0 is no effect and 100 is complete control, 13 to 15 days, read-out: Plant response rating, Ducksalad) of 0% and a pest or weed control at 62 g/ha ([9]; Flood (flooded paddy test), 62 g ai/ha, scale 0 to 100, 0 is no effect, 100 is complete control, 13 to 15 days, read-out: Plant response rating, Ducksalad) of 30%. It also gave a pest or weed control at 125 g/ha ([9]; Flood (flooded paddy test), 125 g ai/ha, scale 0 to 100, 0 is no effect, 100 is complete control, 13 to 15 days, read-out: Plant response rating, Ducksalad) of 30%, a plant injury at 250 g/ha (rice (Oryza sativa); 250 g ai/ha, flooded paddy test, visual rating on 0 to 100 scale (0 no effect, 100 complete control) after 13 to 15 days, read-out: Plant response rating, Flood, Rice) of 15% and a plant injury at 31 g/ha (rice (Oryza sativa); Flood (flooded paddy test), 31 g ai/ha, scale of 0 to 100 where 0 is no effect and 100 is complete control, 13 to 15 days, read-out: Plant response rating, Rice) of 0%. It also gave a plant injury at 62 g/ha (rice (Oryza sativa); Flood (flooded paddy test), 62 g ai/ha, scale 0 to 100, 0 is no effect, 100 is complete control, 13 to 15 days, read-out: Plant response rating, Rice) of 0%, a plant injury at 125 g/ha (rice (Oryza sativa); Flood (flooded paddy test), 125 g ai/ha, scale 0 to 100, 0 is no effect, 100 is complete control, 13 to 15 days, read-out: Plant response rating, Rice) of 0% and a pest or weed control at 250 g/ha ([10]; 250 g ai/ha, flooded paddy test, visual rating on 0 to 100 scale (0 no effect, 100 complete control) after 13 to 15 days, read-out: Plant response rating, Flood, Sedge, Umbrella) of 80%. For the same compound, the pest or weed control at 31 g/ha ([10]; Flood (flooded paddy test), 31 g ai/ha, scale of 0 to 100 where 0 is no effect and 100 is complete control, 13 to 15 days, read-out: Plant response rating, Sedge, Umbrella) was 0%, the pest or weed control at 62 g/ha ([10]; Flood (flooded paddy test), 62 g ai/ha, scale 0 to 100, 0 is no effect, 100 is complete control, 13 to 15 days, read-out: Plant response rating, Sedge, Umbrella) was 70% and the pest or weed control at 125 g/ha ([10]; Flood (flooded paddy test), 125 g ai/ha, scale 0 to 100, 0 is no effect, 100 is complete control, 13 to 15 days, read-out: Plant response rating, Sedge, Umbrella) was 70%.
